According to patent US9346778B2, “Carbofluorescein lactone ion indicators and their applications” (AAT Bioquest, Inc., priority 2007, dated 2016):
Entries after “also recorded” stand apart in the source; their conditions may differ.

How the values were obtained:
[1] = Spectral property comparison (excitation and emission wavelength) of indicator acids; format: physicochemical
Source text: The red-shift excitation and emission wavelengths provide a great advantage for the use of current invention in the high throughput screening of new drug candidates since there are many fluorescent compounds of short wavelength in the screening compound libraries. Fluo-3 AM and Fluo-4 AM are currently used in the high throughput screening of new drug candidates, but their short wavelength overlap with the fluorescence of some fluorescent compounds in the screening compound libraries, causing severe interference.

CHO cells = assay: Cell-induced absorption spectral shift of indicator AM esters, absence vs presence of CHO cells; format: cell-based; conditions: for Cell-Induced Excitation Wavelength Shift (nm): absence vs presence of CHO cells
Source text: (§1) FIG. 7. The cell-induced absorption spectral shift comparison of Fluo-3 AM and Compound 16. The absorption spectra are normalized at their maximum absorption peak. Solid lines represent the absorption spectra of Compound 16 in the absence of CHO cells (left) and in the presence of CHO cells (right) respectively. Dot lines represent the absorption spectra of Fluo-3 AM in the absence of CHO cells (left) and in the presence of CHO cells (right) respectively.
as §1, with “8.” for “7.”, “Fluo-4” for “Fluo-3”, “85.” for “16.”, “85” for “16”
Fluo-3 AM and Fluo-4 AM are predominantly used for monitoring intracellular calcium signal. However, Fluo-3 AM, Fluo-4 AM and their cell-hydrolyzed products (Fluo-3 and Fluo-4) can be simultaneously excited by the same excitation source (see FIGS. 7 and 8), causing high assay background. The present application is directed to a family of fluorescent dyes that are useful for preparing fluorescent metal ion indicators. The indicators include a carbofluorescein lactone fluorophore that is incorporated with an ionophore, and are useful for the detection, discrimination and quantification of metal cations.
In one aspect of the invention, the disclosed calcium indicators have the minimal assay background in their masked form since their non-hydrolyzed AM esters cannot be excited in the range of visible wavelengths. […] The fluorescence outside cells generates the detrimental assay background. It is evident that the calcium indicators of the invention (e.g., Compound 16) have unexpected spectral properties that enable more sensitive detection of calcium in cells compared to the existing fluorescein-based calcium indicators (such as Fluo-3 AM).
It is evident that the calcium indicators of the invention (e.g., Compound 85) have unexpected spectral properties that enable more sensitive detection of calcium in cells compared to the existing fluorescein-based calcium indicators (such as Fluo-4 AM).

[2] = Calcium response of indicator measured in fluorescence excitation/emission in PBS buffer; format: binding; conditions: 5 μM in PBS buffer, excited at 555 nm
Protocol: FIG. 5. Calcium responses of Compound 79 (5 μM) measured in fluorescence excitation in PBS buffer solution. The calcium concentrations are indicated in the graph in the unit of μM.
FIG. 6. Calcium responses of Compound 79 (5 μM) measured in fluorescence emission in PBS buffer solution. The calcium concentrations are indicated in the graph in the unit of μM.

[3] = tested on: CHO cells stably transfected with muscarinic receptor 1; assay: Calcium flux assay in cells loaded with indicator AM ester, ATP stimulation, microplate reader or imaging; format: cell-based; conditions: compared with Fluo-4 AM
Protocol: In yet another aspect of the invention, the fluorescent ion indicators are used in a method to measure calcium flux. Cells (e.g., CHO cells) stably transfected with muscarinic receptor 1 are plated—e.g., at 60,000 cells per 100 μl per well in F12 with 5% FBS and 1% glutamine in a 96-well black wall/clear bottom Costar plate—and incubated (e.g., in 5% CO2 at 37° C. overnight). The growth medium is removed and the cells are incubated with a fluorescent ion indicator (e.g., with 100 μl/well of 1-8 μM Fluo-4 AM or Compound 85 in Hanks and HEPES buffer for 1 hour at room temperature) with or without probenecid. […]
Calcium flux assays are preferred methods in drug discovery for screening G protein coupled receptors (GPCR). The fluorescent indicators of the invention provide a homogeneous fluorescence-based assay for detecting the intracellular calcium mobilization. […] When the sample cells are stimulated with screening compounds, the receptor triggers a release of intracellular calcium, which then greatly increases the fluorescence of the intracellular indicators. The combination of long wavelength fluorescence properties, high sensitivity, and often a >100 times increase in fluorescence upon binding with calcium makes the disclosed indicators well-suited for measurement of cellular calcium. […]

| SMILES | Emission Wavelength (nm) [1] [nm] | Excitation Wavelength (nm) [1] [nm] | Residual absorption of dye AM at the maximum excitation of dye acid (CHO cells) [%] | Cell-Induced Excitation Wavelength Shift (nm) (CHO cells) | other results |
| --- | --- | --- | --- | --- | --- |
| Cc1ccc(N(CC(=O)O)CC(=O)O)c(OCCOc2cc(C3=C4C=C(Cl)C(=O)C=C4C(C)(C)c4cc(O)c(Cl)cc43)c(C(=O)O)cc2N(CC(=O)O)CC(=O)O)c1 [Compound 11] | 584 | 558 | – | – | – |
| CC(=O)OCOC(=O)CN(CC(=O)OCOC(C)=O)c1ccc(C)cc1OCCOc1cc2c(cc1N(CC(=O)OCOC(C)=O)CC(=O)OCOC(C)=O)C(=O)OC21c2cc(Cl)c(OC(C)=O)cc2C(C)(C)c2cc(OC(C)=O)c(Cl)cc21 [Compound 16] | – | – | 0 | 278 | absorption of masked AM form at excitation wavelength (CHO cells; at 555 nm): essentially no absorption |
| Cc1ccc(N(CC(=O)O)CC(=O)O)c(OCCOc2cc(C3=C4C=C(F)C(=O)C=C4C(C)(C)c4cc(O)c(F)cc43)c(C(=O)O)cc2N(CC(=O)O)CC(=O)O)c1 [Compound 79] | 582 | 554 | – | – | calcium binding [2]: binds calcium |
| CC(=O)OCOC(=O)CN(CC(=O)OCOC(C)=O)c1ccc(C)cc1OCCOc1cc2c(cc1N(CC(=O)OCOC(C)=O)CC(=O)OCOC(C)=O)C(=O)OC21c2cc(F)c(OC(C)=O)cc2C(C)(C)c2cc(OC(C)=O)c(F)cc21 [Compound 85] | – | – | 0 | 277 | absorption of masked AM form at excitation wavelength (CHO cells; at 555 nm): essentially no absorption; fluorescence intensity enhancement upon calcium stimulation ([3]; absence of probenecid): much greater than that of Fluo-4 AM; also recorded: better fluorescence intensity enhancement upon calcium stimulation than that of Fluo-4 AM; loading into cells [3]: load into cells much better than Fluo-4 AM |
| CC(=O)OCOC(=O)CN(CC(=O)OCOC(C)=O)c1ccc(C)cc1OCCOc1cc(-c2c3cc(Cl)c(=O)cc-3oc3cc(OCOC(C)=O)c(Cl)cc23)ccc1N(CC(=O)OCOC(C)=O)CC(=O)OCOC(C)=O [Fluo-3 AM, reference compound] | – | – | 7.6 | 36 | absorption of masked AM form at excitation wavelength (CHO cells; at 488 nm): substantial absorption |
| Cc1ccc(N(CC(=O)O)CC(=O)O)c(OCCOc2cc(-c3c4cc(Cl)c(=O)cc-4oc4cc(O)c(Cl)cc34)ccc2N(CC(=O)O)CC(=O)O)c1 [Fluo-3, reference compound] | 526 | 504 | – | – | – |
| CC(=O)OCOC(=O)CN(CC(=O)OCOC(C)=O)c1ccc(C)cc1OCCOc1cc(-c2c3cc(F)c(=O)cc-3oc3cc(OCOC(C)=O)c(F)cc23)ccc1N(CC(=O)OCOC(C)=O)CC(=O)OCOC(C)=O [Fluo-4 AM, reference compound] | – | – | 7.8 | 38 | absorption of masked AM form at excitation wavelength (CHO cells; at 488 nm): substantial absorption |
| Cc1ccc(N(CC(=O)O)CC(=O)O)c(OCCOc2cc(-c3c4cc(F)c(=O)cc-4oc4cc(O)c(F)cc34)ccc2N(CC(=O)O)CC(=O)O)c1 [Fluo-4, reference compound] | 515 | 493 | – | – | – |
